In PubChem BioAssay (NCI):
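How tested: cells in 96-well plates exposed to compound for 48 hours at five concentrations. GI50 is the concentration that inhibits growth by half. TGI: concentration producing complete growth inhibition.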

Experiments:
Assay in all cases: growth of human tumour cells (NCI), 48 h
[1] = system: UACC-257 melanoma
[2] = system: K-562 leukemia
[3] = system: U251 CNS
[4] = system: SF-268 CNS
[5] = system: RPMI-8226 leukemia
[6] = system: OVCAR-5 ovarian
[7] = system: HCC-2998 colon
[8] = system: IGROV1 ovarian
[9] = system: OVCAR-3 ovarian
[10] = system: MOLT-4 leukemia
[11] = system: T-47D breast
[12] = system: BT-549 breast
[13] = system: SK-MEL-5 melanoma
[14] = system: CCRF-CEM leukemia
[15] = system: PC-3 prostate
[16] = system: SNB-19 CNS
[17] = system: HCT-15 colon
[18] = system: SK-MEL-2 melanoma
[19] = system: UACC-62 melanoma
[20] = system: NCI-H522 lung
[21] = system: HT29 colon
[22] = system: M14 melanoma
[23] = system: UO-31 renal
[24] = system: OVCAR-8 ovarian
[25] = system: SNB-75 CNS
[26] = system: SF-295 CNS
[27] = system: SR leukemia
[28] = system: NCI-H460 lung
[29] = system: MCF7 breast
[30] = system: NCI-H23 lung
[31] = system: SF-539 CNS
[32] = system: HL-60(TB) leukemia
[33] = system: OVCAR-4 ovarian
[34] = system: KM12 colon
[35] = system: HOP-62 NSCLC
[36] = system: MDA-MB-435
[37] = system: MALME-3M melanoma
[38] = system: LOX IMVI melanoma
[39] = system: A498 renal
[40] = system: CAKI-1 renal
[41] = system: HS 578T breast
[42] = system: SK-MEL-28 melanoma
[43] = system: EKVX NSCLC
[44] = system: SN12C renal
[45] = system: SK-OV-3 ovarian
[46] = system: A549 NSCLC
[47] = system: RXF 393 renal
[48] = system: NCI/ADR-RES ovarian
[49] = system: NCI-H226 lung
[50] = system: MDA-MB-231 breast
[51] = system: COLO 205 colon
[52] = system: ACHN renal
[53] = system: SW-620 colon
[54] = system: 786-0 renal
[55] = system: HOP-92 NSCLC
[56] = system: HCT-116 colon
[57] = system: TK-10 renal
[58] = system: DU-145 prostate

COc1cc(/C=C2\C(=O)Nc3ccccc32)cc(OC)c1OC
GI50 [1]: 8.81 µM | TGI [1]: 54 µM | GI50 [2]: 4.48 µM | TGI [2]: > 100 µM | GI50 [3]: 10.9 µM | TGI [3]: 63.5 µM | GI50 [4]: 0.955 µM | TGI [4]: > 100 µM | GI50 [5]: 12 µM | TGI [5]: 61.5 µM | GI50 [6]: 29.2 µM | TGI [6]: 76.2 µM | GI50 [7]: 12.4 µM | TGI [7]: 32.8 µM | GI50 [8]: 20 µM | TGI [8]: > 100 µM | GI50 [9]: 25.4 µM | TGI [9]: > 100 µM | GI50 [10]: 12 µM | TGI [10]: 71.3 µM | GI50 [11]: > 100 µM | TGI [11]: > 100 µM | GI50 [12]: 28.7 µM | TGI [12]: > 100 µM | GI50 [13]: 11.1 µM | TGI [13]: 57.1 µM | GI50 [14]: 8.82 µM | TGI [14]: > 100 µM | GI50 [15]: 18.8 µM | TGI [15]: > 100 µM | GI50 [16]: 27.1 µM | TGI [16]: > 100 µM | GI50 [17]: 11.6 µM | TGI [17]: > 100 µM | GI50 [18]: 17.5 µM | TGI [18]: 82.6 µM | GI50 [19]: 14.4 µM | TGI [19]: > 100 µM | GI50 [20]: 14.1 µM | TGI [20]: 90.4 µM | GI50 [21]: 19.8 µM | TGI [21]: > 100 µM | GI50 [22]: 21.2 µM | TGI [22]: 79.5 µM | GI50 [23]: 30.4 µM | TGI [23]: > 100 µM | GI50 [24]: 25 µM | TGI [24]: > 100 µM | GI50 [25]: 15 µM | TGI [25]: 58.7 µM | GI50 [26]: 28.3 µM | TGI [26]: > 100 µM | GI50 [27]: 3.83 µM | TGI [27]: > 100 µM | GI50 [28]: 11.8 µM | TGI [28]: > 100 µM | GI50 [29]: 19.9 µM | TGI [29]: > 100 µM | GI50 [30]: 17.9 µM | TGI [30]: 68.3 µM | GI50 [31]: 27.9 µM | TGI [31]: > 100 µM | GI50 [32]: 8.15 µM | TGI [32]: > 100 µM | GI50 [33]: 22.1 µM | TGI [33]: > 100 µM | GI50 [34]: 11.7 µM | TGI [34]: 98 µM | GI50 [35]: 22.2 µM | TGI [35]: 62.3 µM | GI50 [36]: 4.1 µM | TGI [36]: 45.1 µM | GI50 [37]: 67 µM | TGI [37]: > 100 µM | GI50 [38]: 16.5 µM | TGI [38]: > 100 µM | GI50 [39]: 27.4 µM | TGI [39]: > 100 µM | GI50 [40]: 18.9 µM | TGI [40]: > 100 µM | GI50 [41]: 28.7 µM | TGI [41]: > 100 µM | GI50 [42]: 41.8 µM | TGI [42]: > 100 µM | GI50 [43]: 18.8 µM | TGI [43]: > 100 µM | GI50 [44]: 20.7 µM | TGI [44]: > 100 µM | GI50 [45]: 26.1 µM | TGI [45]: > 100 µM | GI50 [46]: 20.3 µM | TGI [46]: > 100 µM | GI50 [47]: 2.37 µM | TGI [47]: 10.6 µM | GI50 [48]: 11.6 µM | TGI [48]: 45.6 µM | GI50 [49]: 26.1 µM | TGI [49]: > 100 µM | GI50 [50]: 11.4 µM | TGI [50]: 78.1 µM | GI50 [51]: 14.5 µM | TGI [51]: 47.9 µM | GI50 [52]: 26.4 µM | TGI [52]: > 100 µM | GI50 [53]: 19.9 µM | TGI [53]: > 100 µM | GI50 [54]: 23.2 µM | TGI [54]: > 100 µM | GI50 [55]: 20.8 µM | TGI [55]: 71.7 µM | GI50 [56]: 17.3 µM | TGI [56]: > 100 µM | GI50 [57]: 29.4 µM | TGI [57]: > 100 µM

N/C(=N\c1nc2ccccc2s1)NC(=O)Nc1cccc2ccccc12
GI50 [1]: > 100 µM | TGI [1]: > 100 µM | GI50 [2]: 0.0765 µM | TGI [2]: > 100 µM | GI50 [4]: 2.72 µM | TGI [4]: > 100 µM | GI50 [5]: 0.418 µM | TGI [5]: > 100 µM | GI50 [6]: 0.696 µM | TGI [6]: > 100 µM | GI50 [7]: 0.741 µM | TGI [7]: > 100 µM | GI50 [8]: 0.371 µM | TGI [8]: > 100 µM | GI50 [9]: 0.228 µM | TGI [9]: 1.09 µM | GI50 [10]: 0.472 µM | TGI [10]: > 100 µM | GI50 [11]: 0.556 µM | TGI [11]: > 100 µM | GI50 [12]: 2.91 µM | TGI [12]: > 100 µM | GI50 [58]: 0.356 µM | TGI [58]: 4.2 µM | GI50 [13]: 0.505 µM | TGI [13]: > 100 µM | GI50 [14]: 0.36 µM | TGI [14]: > 100 µM | GI50 [15]: 0.318 µM | TGI [15]: > 100 µM | GI50 [16]: 0.574 µM | TGI [16]: > 81.2 µM | GI50 [17]: 0.126 µM | TGI [17]: > 100 µM | GI50 [18]: 0.582 µM | TGI [18]: 34 µM | GI50 [19]: 0.354 µM | TGI [19]: > 95 µM | GI50 [20]: 0.0775 µM | GI50 [21]: 0.19 µM | TGI [21]: > 100 µM | GI50 [22]: 0.23 µM | TGI [22]: > 100 µM | GI50 [23]: 0.802 µM | TGI [23]: > 100 µM | GI50 [24]: 0.521 µM | TGI [24]: > 100 µM | GI50 [25]: 0.198 µM | TGI [25]: 1.1 µM | GI50 [26]: 0.173 µM | TGI [26]: 1.83 µM | GI50 [27]: 0.0591 µM | TGI [27]: > 100 µM | GI50 [29]: 0.209 µM | TGI [29]: > 100 µM | GI50 [30]: 0.462 µM | TGI [30]: > 28.4 µM | GI50 [31]: 0.242 µM | TGI [31]: 0.768 µM | GI50 [32]: 0.283 µM | TGI [32]: 0.968 µM | GI50 [35]: 0.406 µM | GI50 [36]: 0.0321 µM | TGI [36]: 0.143 µM | GI50 [37]: 1.24 µM | TGI [37]: > 100 µM | GI50 [38]: 0.825 µM | TGI [38]: > 100 µM | GI50 [39]: 0.347 µM | TGI [39]: 3.72 µM | GI50 [41]: 0.302 µM | TGI [41]: 5.41 µM | GI50 [42]: 12.9 µM | TGI [42]: > 100 µM | GI50 [43]: 0.462 µM | TGI [43]: > 100 µM | GI50 [44]: 0.861 µM | TGI [44]: > 100 µM | GI50 [46]: 0.436 µM | TGI [46]: > 100 µM | GI50 [47]: 0.2 µM | TGI [47]: 0.898 µM | GI50 [48]: 0.144 µM | TGI [48]: 1.34 µM | GI50 [49]: 0.6 µM | TGI [49]: > 68.9 µM | GI50 [50]: 0.636 µM | TGI [50]: 3.32 µM | GI50 [53]: 0.26 µM | TGI [53]: > 100 µM | GI50 [54]: 0.603 µM | TGI [54]: > 94.8 µM | GI50 [55]: 1.81 µM | TGI [55]: > 47.3 µM
